According to patent US10597388B2, “Pyridazinone herbicides” (FMC CORPORATION, priority 2014, dated 2020):

Legend:
Test in all cases: Test D controlled growth environment herbicide test, pre- and postemergence
Type in all cases: in vivo
[1] = system: barley, spring (spring barley, Hordeum vulgare)
Description: (§1) Seeds of plant species selected from bluegrass (annual bluegrass, Poa annua), blackgrass (Alopecurus myosuroides), Canada thistle (Cirsium arvense), canarygrass (Phalaris minor), chickweed (common chickweed, Stellaria media), geranium, cutleaf (cutleaf geranium, Geranium dissectum), galium (catchweed bedstraw, Galium aparine), bromegrass, downy (downy bromegrass, Bromus tectorum), field poppy (Papaver rhoeas), field violet (Viola arvensis), foxtail, green (green foxtail, Setaria viridis), deadnettle (henbit deadnettle, Lamium amplexicaule), ryegrass, Italian (Italian ryegrass, Lolium multiflorum), kochia (Kochia scoparia), lambsquarters (Chenopodium album), oilseed rape (Brassica napus), pigweed (Amaranthus retroflexus), chamomile (scentless chamomile, Matricaria inodora), Russian thistle (Salsola kali), speedwell (bird's-eye speedwell, Veronica persica), barley, spring (spring barley, Hordeum vulgare), wheat, spring (spring wheat, Triticum aestivum), buckwheat, wild (wild buckwheat, Polygonum convolvulus), mustard, wild (wild mustard, Sinapis arvensis), oat, wild (wild oat, Avena fatua), radish, wild (wild radish, Raphanus raphanistrum), windgrass (Apera spica-venti), barley, winter (winter barley, Hordeum vulgare), and wheat, winter (winter wheat, Triticum aestivum) were planted into a silt loam soil and treated preemergence with test chemicals formulated in a non-phytotoxic solvent mixture which included a surfactant.
(§2) At the same time, these species were planted in pots containing Redi-Earth® planting medium (Scotts Company, 14111 Scottslawn Road, Marysville, Ohio 43041) comprising spaghnum peat moss, vermiculite, wetting agent and starter nutrients and treated with postemergence applications of the test chemicals formulated in the same manner. Plants ranged in height from 2 to 18 cm (1- to 4-leaf stage). Treated plants and controls were maintained in a controlled growth environment for 14 to 21 d after which time all species were compared to controls and visually evaluated. Plant response ratings, summarized in Table D, are based on a scale of 0 to 100 where 0 is no effect and 100 is complete control. A dash (-) response means no test result.

[2] = system: bromegrass, downy (downy bromegrass, Bromus tectorum)
Description: as §1, §2

[3] = system: chamomile (scentless chamomile, Matricaria inodora)
Description: as §1, §2

[4] = system: deadnettle (henbit deadnettle, Lamium amplexicaule)
Description: as §1, §2

[5] = system: field violet (Viola arvensis)
Description: as §1, §2

[6] = system: lambsquarters (Chenopodium album)
Description: as §1, §2

[7] = system: mustard, wild (wild mustard, Sinapis arvensis)
Description: as §1, §2

[8] = system: oat, wild (wild oat, Avena fatua)
Description: as §1, §2

[9] = system: oilseed rape (Brassica napus)
Description: as §1, §2

[10] = system: radish, wild (wild radish, Raphanus raphanistrum)
Description: as §1, §2

[11] = system: speedwell (bird's-eye speedwell, Veronica persica)
Description: as §1, §2

[12] = system: wheat, spring (spring wheat, Triticum aestivum)
Description: as §1, §2

[13] = system: windgrass (Apera spica-venti)
Description: as §1, §2

[14] = Postemergence, 31 g ai/ha, scale 0 to 100 (0 no effect, 100 complete control)
[15] = Postemergence, 125 g ai/ha, visual rating on scale 0 (no effect) to 100 (complete control), 14 to 21 d
[16] = Postemergence, 250 g ai/ha, scale 0 to 100 (0 no effect, 100 complete control)
[17] = Preemergence, 62 g ai/ha, scale 0 to 100 (0 no effect, 100 complete control)
[18] = Preemergence, 125 g ai/ha, scale 0 to 100 (0 no effect, 100 complete control)
[19] = Preemergence, 250 g ai/ha, scale 0 to 100 (0 no effect, 100 complete control)
[20] = postemergence, 62 g ai/ha, scale 0 to 100, 0 no effect, 100 complete control

Structure (SMILES): CC(=O)Oc1c(C)nn(C)c(=O)c1-c1c(C)sc2c(C)cc(C)cc12 [Compound 27]
- Plant response rating, Barley, Spring [1, 14]: 0
- Plant response rating, Barley, Spring [1, 15]: 5
- Plant response rating, Barley, Spring [1, 16]: 10
- Plant response rating (scale of 0 to 100), Barley, Spring ([1]; Preemergence, 31 g ai/ha): 0
- Plant response rating, Barley, Spring [1, 17]: 0
- Plant response rating, Barley, Spring [1, 18]: 0
- Barley, Spring plant response rating [1, 19]: 0
- Plant response rating, Barley, Spring [1, 20]: 0
- Bromegrass, Downy plant response rating [2, 14]: 15
- Plant response rating, Bromegrass, Downy [2, 15]: 55
- Plant response rating, Bromegrass, Downy [2, 16]: 70
- Plant response rating (scale of 0 to 100), Bromegrass, Downy ([2]; Preemergence, 31 g ai/ha): 35
- Plant response rating, Bromegrass, Downy [2, 17]: 55
- Plant response rating, Bromegrass, Downy [2, 18]: 85
- Plant response rating, Bromegrass, Downy [2, 19]: 85
- Plant response rating, Bromegrass, Downy [2, 20]: 25
- Chamomile plant response rating [3, 14]: 80
- Plant response rating, Chamomile [3, 15]: 95
- Plant response rating, Chamomile [3, 16]: 100
- Plant response rating (scale of 0 to 100), Chamomile ([3]; Preemergence, 31 g ai/ha): 100
- Plant response rating, Chamomile [3, 17]: 100
- Plant response rating, Chamomile [3, 18]: 100
- Plant response rating, Chamomile [3, 19]: 100
- Plant response rating, Chamomile [3, 20]: 90
- Deadnettle plant response rating [4, 14]: 5
- Plant response rating, Deadnettle [4, 15]: 30
- Plant response rating, Deadnettle [4, 16]: 60
- Plant response rating (scale of 0 to 100), Deadnettle ([4]; Preemergence, 31 g ai/ha): 0
- Plant response rating, Deadnettle [4, 17]: 0
- Plant response rating, Deadnettle [4, 18]: 55
- Plant response rating, Deadnettle [4, 19]: 80
- Plant response rating, Deadnettle [4, 20]: 5
- Field Violet plant response rating [5, 14]: 75
- Plant response rating, Field Violet [5, 15]: 75
- Plant response rating, Field Violet [5, 16]: 85
- Plant response rating (scale of 0 to 100), Field Violet ([5]; Preemergence, 31 g ai/ha): 80
- Plant response rating, Field Violet [5, 17]: 90
- Plant response rating, Field Violet [5, 18]: 95
- Plant response rating, Field Violet [5, 19]: 95
- Plant response rating, Field Violet [5, 20]: 70
- Lambsquarters plant response rating [6, 14]: 80
- Plant response rating, Lambsquarters [6, 15]: 85
- Plant response rating, Lambsquarters [6, 16]: 85
- Plant response rating (scale of 0 to 100), Lambsquarters ([6]; Preemergence, 31 g ai/ha): 100
- Plant response rating, Lambsquarters [6, 17]: 100
- Plant response rating, Lambsquarters [6, 18]: 100
- Plant response rating, Lambsquarters [6, 19]: 100
- Plant response rating, Lambsquarters [6, 20]: 85
- Mustard, Wild plant response rating [7, 14]: 15
- Plant response rating, Mustard, Wild [7, 15]: 30
- Plant response rating, Mustard, Wild [7, 16]: 75
- Plant response rating (scale of 0 to 100), Mustard, Wild ([7]; Preemergence, 31 g ai/ha): 40
- Plant response rating, Mustard, Wild [7, 17]: 40
- Plant response rating, Mustard, Wild [7, 18]: 45
- Plant response rating, Mustard, Wild [7, 19]: 65
- Plant response rating, Mustard, Wild [7, 20]: 40
- Oat, Wild plant response rating [8, 14]: 75
- Plant response rating, Oat, Wild [8, 15]: 90
- Plant response rating, Oat, Wild [8, 16]: 98
- Plant response rating (scale of 0 to 100), Oat, Wild ([8]; Preemergence, 31 g ai/ha): 85
- Plant response rating, Oat, Wild [8, 17]: 85
- Plant response rating, Oat, Wild [8, 18]: 90
- Plant response rating, Oat, Wild [8, 19]: 95
- Plant response rating, Oat, Wild [8, 20]: 85
- Oilseed Rape plant response rating [9, 14]: 55
- Plant response rating, Oilseed Rape [9, 15]: 70
- Plant response rating, Oilseed Rape [9, 16]: 85
- Plant response rating (scale of 0 to 100), Oilseed Rape ([9]; Preemergence, 31 g ai/ha): 0
- Plant response rating, Oilseed Rape [9, 17]: 0
- Plant response rating, Oilseed Rape [9, 18]: 0
- Plant response rating, Oilseed Rape [9, 19]: 35
- Plant response rating, Oilseed Rape [9, 20]: 65
- Radish, Wild plant response rating [10, 14]: 65
- Plant response rating, Radish, Wild [10, 15]: 85
- Plant response rating, Radish, Wild [10, 16]: 90
- Plant response rating (scale of 0 to 100), Radish, Wild ([10]; Preemergence, 31 g ai/ha): 0
- Plant response rating, Radish, Wild [10, 17]: 50
- Plant response rating, Radish, Wild [10, 18]: 60
- Plant response rating, Radish, Wild [10, 19]: 95
- Plant response rating, Radish, Wild [10, 20]: 75
- Speedwell plant response rating [11, 14]: 35
- Plant response rating, Speedwell [11, 15]: 100
- Plant response rating, Speedwell [11, 16]: 100
- Plant response rating (scale of 0 to 100), Speedwell ([11]; Preemergence, 31 g ai/ha): 75
- Plant response rating, Speedwell [11, 17]: 100
- Plant response rating, Speedwell [11, 18]: 100
- Plant response rating, Speedwell [11, 19]: 100
- Plant response rating, Speedwell [11, 20]: 70
- Wheat, Spring plant response rating [12, 14]: 0
- Plant response rating, Wheat, Spring [12, 15]: 10
- Plant response rating, Wheat, Spring [12, 16]: 20
- Plant response rating (scale of 0 to 100), Wheat, Spring ([12]; Preemergence, 31 g ai/ha): 0
- Plant response rating, Wheat, Spring [12, 17]: 0
- Plant response rating, Wheat, Spring [12, 18]: 5
- Plant response rating, Wheat, Spring [12, 19]: 25
- Plant response rating, Wheat, Spring [12, 20]: 5
- Windgrass plant response rating [13, 14]: 75
- Plant response rating, Windgrass [13, 15]: 80
- Plant response rating, Windgrass [13, 16]: 90
- Plant response rating (scale of 0 to 100), Windgrass ([13]; Preemergence, 31 g ai/ha): 75
- Plant response rating, Windgrass [13, 17]: 85
- Plant response rating, Windgrass [13, 18]: 100
- Plant response rating, Windgrass [13, 19]: 100
- Plant response rating, Windgrass [13, 20]: 75
